These compounds were tested on Staphylococcus aureus (assay: Antimicrobial activity against methicillin-susceptible Staphylococcus aureus Smith by NCCLS method).
Format: functional
In the case of `C=C[C@]1(C)C[C@@H](OC(=O)CN2CCN(C(=O)CCn3cnc4c(N5CCC(N)C5)ncnc43)[C@H](C)C2)[C@]2(C)[C@H](C)CC[C@]3(CCC(=O)[C@@H]32)[C@@H](C)[C@@H]1O.Cl.Cl` (some centres not stated), the MIC is reported as 0.25 mg/L.
In the case of `C=C[C@]1(C)C[C@@H](OC(=O)CN2CCN(C(=O)CCn3cnc4c(N5CCC(N)C5)ncnc43)C(C)C2)[C@]2(C)[C@H](C)CC[C@]3(CCC(=O)[C@@H]32)[C@@H](C)[C@@H]1O.Cl.Cl` (some centres not stated), the MIC is reported as 0.25 mg/L.
`C=C[C@]1(C)C[C@@H](OC(=O)CN2CCN(C(=O)CCn3cnc4c(N5CC[C@H](CNC)C5)ncnc43)[C@@H](C)C2)[C@]2(C)[C@H](C)CC[C@]3(CCC(=O)[C@@H]32)[C@@H](C)[C@@H]1O.Cl.Cl` showed an MIC of 0.25 mg/L.

These compounds were tested on Staphylococcus aureus (assay: Antimicrobial activity against methicillin-resistant Staphylococcus aureus KMP9).
Format: functional
Work on `C=C[C@]1(C)C[C@@H](OC(=O)CN2CCN(C(=O)CCn3cnc4c(N5CCC(N)C5)ncnc43)[C@H](C)C2)[C@]2(C)[C@H](C)CC[C@]3(CCC(=O)[C@@H]32)[C@@H](C)[C@@H]1O.Cl.Cl` (some centres not stated) yielded an MIC of 0.5 mg/L.
In the case of `C=C[C@]1(C)C[C@@H](OC(=O)CN2CCN(C(=O)CCn3cnc4c(N5CCC(N)C5)ncnc43)C(C)C2)[C@]2(C)[C@H](C)CC[C@]3(CCC(=O)[C@@H]32)[C@@H](C)[C@@H]1O.Cl.Cl` (some centres not stated), the MIC is reported as 0.25 mg/L.
Work on `C=C[C@]1(C)C[C@@H](OC(=O)CN2CCN(C(=O)CCn3cnc4c(N5CC[C@H](CNC)C5)ncnc43)[C@@H](C)C2)[C@]2(C)[C@H](C)CC[C@]3(CCC(=O)[C@@H]32)[C@@H](C)[C@@H]1O.Cl.Cl` yielded an MIC of 0.5 mg/L.

Each compound was assayed on Streptococcus pneumoniae (assay: Antimicrobial activity against penicillin-susceptible Streptococcus pneumoniae ATCC 49619 by NCCLS method).
Format: functional
For `C=C[C@]1(C)C[C@@H](OC(=O)CN2CCN(C(=O)CCn3cnc4c(N5CCC(N)C5)ncnc43)[C@H](C)C2)[C@]2(C)[C@H](C)CC[C@]3(CCC(=O)[C@@H]32)[C@@H](C)[C@@H]1O.Cl.Cl` (some centres not stated), the MIC was 0.125 mg/L.
Work on `C=C[C@]1(C)C[C@@H](OC(=O)CN2CCN(C(=O)CCn3cnc4c(N5CCC(N)C5)ncnc43)C(C)C2)[C@]2(C)[C@H](C)CC[C@]3(CCC(=O)[C@@H]32)[C@@H](C)[C@@H]1O.Cl.Cl` (some centres not stated) yielded an MIC of 0.032 mg/L.
Work on `C=C[C@]1(C)C[C@@H](OC(=O)CN2CCN(C(=O)CCn3cnc4c(N5CC[C@H](CNC)C5)ncnc43)[C@@H](C)C2)[C@]2(C)[C@H](C)CC[C@]3(CCC(=O)[C@@H]32)[C@@H](C)[C@@H]1O.Cl.Cl` yielded an MIC of 0.063 mg/L.

These compounds were tested on Streptococcus pneumoniae (assay: Antimicrobial activity against penicillin-resistant Streptococcus pneumoniae KT2524 by NCCLS method).
Format: functional
In the case of `C=C[C@]1(C)C[C@@H](OC(=O)CN2CCN(C(=O)CCn3cnc4c(N5CCC(N)C5)ncnc43)[C@H](C)C2)[C@]2(C)[C@H](C)CC[C@]3(CCC(=O)[C@@H]32)[C@@H](C)[C@@H]1O.Cl.Cl` (some centres not stated), the MIC is reported as 0.125 mg/L.
`C=C[C@]1(C)C[C@@H](OC(=O)CN2CCN(C(=O)CCn3cnc4c(N5CCC(N)C5)ncnc43)C(C)C2)[C@]2(C)[C@H](C)CC[C@]3(CCC(=O)[C@@H]32)[C@@H](C)[C@@H]1O.Cl.Cl` (some centres not stated) gave an MIC of 0.032 mg/L.
`C=C[C@]1(C)C[C@@H](OC(=O)CN2CCN(C(=O)CCn3cnc4c(N5CC[C@H](CNC)C5)ncnc43)[C@@H](C)C2)[C@]2(C)[C@H](C)CC[C@]3(CCC(=O)[C@@H]32)[C@@H](C)[C@@H]1O.Cl.Cl` showed an MIC of 0.063 mg/L.

Each compound was assayed on Streptococcus pyogenes (assay: Antimicrobial activity against Streptococcus pyogenes ATCC 112344 by NCCLS method).
Format: functional
`C=C[C@]1(C)C[C@@H](OC(=O)CN2CCN(C(=O)CCn3cnc4c(N5CCC(N)C5)ncnc43)[C@H](C)C2)[C@]2(C)[C@H](C)CC[C@]3(CCC(=O)[C@@H]32)[C@@H](C)[C@@H]1O.Cl.Cl` (some centres not stated) showed an MIC of 0.063 mg/L.
For `C=C[C@]1(C)C[C@@H](OC(=O)CN2CCN(C(=O)CCn3cnc4c(N5CCC(N)C5)ncnc43)C(C)C2)[C@]2(C)[C@H](C)CC[C@]3(CCC(=O)[C@@H]32)[C@@H](C)[C@@H]1O.Cl.Cl` (some centres not stated), the MIC was 0.032 mg/L.
Work on `C=C[C@]1(C)C[C@@H](OC(=O)CN2CCN(C(=O)CCn3cnc4c(N5CC[C@H](CNC)C5)ncnc43)[C@@H](C)C2)[C@]2(C)[C@H](C)CC[C@]3(CCC(=O)[C@@H]32)[C@@H](C)[C@@H]1O.Cl.Cl` yielded an MIC of 0.032 mg/L.

The compounds below were run on Enterococcus faecium (assay: Antimicrobial activity against vancomycin-resistant Enterococcus faecium KU1778 by NCCLS method).
Format: functional
`C=C[C@]1(C)C[C@@H](OC(=O)CN2CCN(C(=O)CCn3cnc4c(N5CCC(N)C5)ncnc43)[C@H](C)C2)[C@]2(C)[C@H](C)CC[C@]3(CCC(=O)[C@@H]32)[C@@H](C)[C@@H]1O.Cl.Cl` (some centres not stated) was tested, and the MIC was 0.25 mg/L.
Work on `C=C[C@]1(C)C[C@@H](OC(=O)CN2CCN(C(=O)CCn3cnc4c(N5CCC(N)C5)ncnc43)C(C)C2)[C@]2(C)[C@H](C)CC[C@]3(CCC(=O)[C@@H]32)[C@@H](C)[C@@H]1O.Cl.Cl` (some centres not stated) yielded an MIC of 0.125 mg/L.
Work on `C=C[C@]1(C)C[C@@H](OC(=O)CN2CCN(C(=O)CCn3cnc4c(N5CC[C@H](CNC)C5)ncnc43)[C@@H](C)C2)[C@]2(C)[C@H](C)CC[C@]3(CCC(=O)[C@@H]32)[C@@H](C)[C@@H]1O.Cl.Cl` yielded an MIC of 0.25 mg/L.

Each compound was assayed on Moraxella catarrhalis (assay: Antimicrobial activity against Moraxella catarrhalis K1209 by NCCLS method).
Format: functional
Work on `C=C[C@]1(C)C[C@@H](OC(=O)CN2CCN(C(=O)CCn3cnc4c(N5CCC(N)C5)ncnc43)[C@H](C)C2)[C@]2(C)[C@H](C)CC[C@]3(CCC(=O)[C@@H]32)[C@@H](C)[C@@H]1O.Cl.Cl` (some centres not stated) yielded an MIC of 0.25 mg/L.
In the case of `C=C[C@]1(C)C[C@@H](OC(=O)CN2CCN(C(=O)CCn3cnc4c(N5CCC(N)C5)ncnc43)C(C)C2)[C@]2(C)[C@H](C)CC[C@]3(CCC(=O)[C@@H]32)[C@@H](C)[C@@H]1O.Cl.Cl` (some centres not stated), the MIC is reported as 0.125 mg/L.
`C=C[C@]1(C)C[C@@H](OC(=O)CN2CCN(C(=O)CCn3cnc4c(N5CC[C@H](CNC)C5)ncnc43)[C@@H](C)C2)[C@]2(C)[C@H](C)CC[C@]3(CCC(=O)[C@@H]32)[C@@H](C)[C@@H]1O.Cl.Cl` showed an MIC of 0.125 mg/L.

Each compound was assayed on Haemophilus influenzae (assay: Antimicrobial activity against Haemophilus influenzae TH13 by NCCLS method).
Format: functional
For `C=C[C@]1(C)C[C@@H](OC(=O)CN2CCN(C(=O)CCn3cnc4c(N5CCC(N)C5)ncnc43)[C@H](C)C2)[C@]2(C)[C@H](C)CC[C@]3(CCC(=O)[C@@H]32)[C@@H](C)[C@@H]1O.Cl.Cl` (some centres not stated), the MIC was 8 mg/L.
Compound `C=C[C@]1(C)C[C@@H](OC(=O)CN2CCN(C(=O)CCn3cnc4c(N5CCC(N)C5)ncnc43)C(C)C2)[C@]2(C)[C@H](C)CC[C@]3(CCC(=O)[C@@H]32)[C@@H](C)[C@@H]1O.Cl.Cl` (some centres not stated) has an MIC of 2 mg/L.
`C=C[C@]1(C)C[C@@H](OC(=O)CN2CCN(C(=O)CCn3cnc4c(N5CC[C@H](CNC)C5)ncnc43)[C@@H](C)C2)[C@]2(C)[C@H](C)CC[C@]3(CCC(=O)[C@@H]32)[C@@H](C)[C@@H]1O.Cl.Cl` was tested, and the MIC was 2 mg/L.

The compounds below were run on Staphylococcus aureus (assay: Antimicrobial activity against methicillin-susceptible Staphylococcus aureus infected iv dosed mouse assessed as survival rate after 1 hr of infection).
Format: functional
In the case of `C=C[C@]1(C)C[C@@H](OC(=O)CN2CCN(C(=O)CCn3cnc4c(N5CCC(N)C5)ncnc43)[C@H](C)C2)[C@]2(C)[C@H](C)CC[C@]3(CCC(=O)[C@@H]32)[C@@H](C)[C@@H]1O.Cl.Cl` (some centres not stated), the ED50 is reported as 2.21 mg/kg.
`C=C[C@]1(C)C[C@@H](OC(=O)CN2CCN(C(=O)CCn3cnc4c(N5CCC(N)C5)ncnc43)C(C)C2)[C@]2(C)[C@H](C)CC[C@]3(CCC(=O)[C@@H]32)[C@@H](C)[C@@H]1O.Cl.Cl` (some centres not stated) showed an ED50 of 1.39 mg/kg.
For `C=C[C@]1(C)C[C@@H](OC(=O)CN2CCN(C(=O)CCn3cnc4c(N5CC[C@H](CNC)C5)ncnc43)[C@@H](C)C2)[C@]2(C)[C@H](C)CC[C@]3(CCC(=O)[C@@H]32)[C@@H](C)[C@@H]1O.Cl.Cl`, the ED50 was 1.1 mg/kg.

— ChEMBL document CHEMBL1139278 (2009)
